# Measurements taken from the supplement of paper PMC13380429.
# ± gives the standard deviation of the averaged measurements.
# Columns and labels:
# Settings in all cases: 72 h
# [1] = test system: U2OS; assay: cell viability relative to DMSO; higher = less toxic
# [2] = test system: HepG2; assay: as above
# [3] = test system: Calu-3; assay: as above
# [4] = test system: Vero E6; assay: as above
# [5] = test system: Caco-2; assay: as above
# [6] = test system: U2OS; assay: relative viability EC50 (midpoint between 100% and the lowest measured viability); higher = less toxic
# [7] = test system: HepG2; assay: as above
# [8] = test system: Calu-3; assay: as above
# [9] = test system: Vero E6; assay: as above
# [10] = test system: Caco-2; assay: as above
# [11] = test system: U2OS; assay: drug sensitivity score (DSS) for viability; higher = more toxic; extreme values may be limits of the assay
# [12] = test system: HepG2; assay: as above
# [13] = test system: Calu-3; assay: as above
# [14] = test system: Vero E6; assay: as above
# [15] = test system: Caco-2; assay: as above
Structure (SMILES),cell viability ([1]; 1 nM) [%],cell viability ([1]; 10 nM) [%],cell viability ([1]; 100 nM) [%],cell viability ([1]; 1000 nM) [%],cell viability ([1]; 10000 nM) [%],cell viability ([2]; 1 nM) [%],cell viability ([2]; 10 nM) [%],cell viability ([2]; 100 nM) [%],cell viability ([2]; 1000 nM) [%],cell viability ([2]; 10000 nM) [%],cell viability ([3]; 1 nM) [%],cell viability ([3]; 10 nM) [%],cell viability ([3]; 100 nM) [%],cell viability ([3]; 1000 nM) [%],cell viability ([3]; 10000 nM) [%],cell viability ([4]; 1 nM) [%],cell viability ([4]; 10 nM) [%],cell viability ([4]; 100 nM) [%],cell viability ([4]; 1000 nM) [%],cell viability ([4]; 10000 nM) [%],cell viability ([5]; 1 nM) [%],cell viability ([5]; 10 nM) [%],cell viability ([5]; 100 nM) [%],cell viability ([5]; 1000 nM) [%],cell viability ([5]; 10000 nM) [%],relative viability EC50 [6] [µM],relative viability EC50 [7] [µM],relative viability EC50 [8] [µM],relative viability EC50 [9] [µM],relative viability EC50 [10] [µM],drug sensitivity score [11],drug sensitivity score [12],drug sensitivity score [13],drug sensitivity score [14],drug sensitivity score [15]
O=C(O)CSc1nnc(Br)n1-c1ccc(C2CC2)c2ccccc12 [lesinurad],99.6,103,95.2,95.9,96.3,98.8,102,99.4,84.8,99.7,99,101,106,95.5,102,99.4,100,99.9,102,99.5,98.4,90.9,91.4,94,99.7,> 10,> 10,> 10,> 10,> 10,0,0,0,0,0
Nc1nc(=O)c2c([nH]1)NCC(CNc1ccc(C(=O)N[C@@H](CCC(=O)O)C(=O)O)cc1)N2C=O (stereo not given in full) [leucovorin],108,98.9,98.1,95.6,99.2,116,96.5,100,108,97.5,103 ± 15,96.9 ± 7.9,97.45 ± 0.78,99.3 ± 1.7,105 ± 7.5,101 ± 3.2,98.2 ± 5.1,104 ± 1.4,97.2 ± 2,101 ± 6.8,92 ± 1.3,94.5 ± 6.2,89.6 ± 2.3,100.3 ± 0.92,100 ± 2,> 10,> 10,> 10,> 10,> 10,0,0,0,0,0
NC(=O)N1c2ccccc2CC(O)c2ccccc21 (stereo not given) [licarbazepine],108,97.5,98.8,101,102,96.3,96.4,93.5,108,99,98.3,99.9,96.3,105,92.1,101,102,104,97.6,97.8,98.3,99.5,97.8,100,91.5,> 10,> 10,> 10,> 10,> 10,0,0,0,0,0
CN1C(C(=O)Nc2ccccn2)=C(O)c2sc(Cl)cc2S1(=O)=O [lornoxicam],100,93.8,102,94.7,100,91.1,104,100,104,97.4,95.3,100,107,99.8,104,92.4,98.8,94.8,97.1,91.3,110,95,99.9,86.6,95.5,> 10,> 10,> 10,> 10,> 10,0,0,0,0,0
CCCCc1nc(Cl)c(CO)n1Cc1ccc(-c2ccccc2-c2nnn[nH]2)cc1 [losartan],99.1,104,96.4,105,96.5,110,116,104,96.7,96.7,103,84.4,96.2,97.5,94.6,103,102,102,98.1,101,94.1,102,93.2,94.7,95.5,> 10,> 10,> 10,> 10,> 10,0,0,0,0,0
Cc1cccc(CN2CCN(C(c3ccccc3)c3ccc(Cl)cc3)CC2)c1 (stereo not given) [meclizine],96.5,98.6,93.6,101,91.6,102,108,106,92.3,90,92.7,88.4,95.7,94.1,87.6,107,105,103,102,97.7,91.9,101,97.1,99.5,85.8,> 10,> 10,> 10,> 10,> 10,0,0,0,0,0.2
